Reference: ChEMBL document CHEMBL4616655, “Kalparinol, a Salvialane (Isodaucane) Sesquiterpenoid Derived from Native Australian Dysphania Species That Suggests a Putative Biogenetic Link to Zerumbone” (J Nat Prod, 2020)
Calls of active or inactive are those of the source. No cut-off for these calls is given here.

Assays:
CAL-27 = assay: Cytotoxicity against human CAL27 cells assessed as reduction in cell viability after 6 days by SRB assay; assay type: functional, cell-based
NFF = assay: Cytotoxicity against human NFF cells assessed as reduction in cell viability after 6 days by SRB assay; assay type: cell-based; conditions: 144 h
Candida albicans = assay: Antifungal activity against Candida albicans ATCC 90028 assessed as reduction in microbial growth up to 200 uM incubated for 24 to 48 hrs; assay type: functional, organism-based
[Candida] auris [1] = Antifungal activity against Candida auris CBS 12373 assessed as reduction in microbial growth up to 200 uM incubated for 24 to 48 hrs; assay type: functional, organism-based; conditions: Candidozyma auris
Nakaseomyces glabratus = assay: Antifungal activity against Candida glabrata ATCC 90030 assessed as reduction in microbial growth up to 200 uM incubated for 24 to 48 hrs; assay type: functional, organism-based
MM96L = assay: Cytotoxicity against human MM96L cells assessed as reduction in cell viability after 6 days by SRB assay; assay type: functional, cell-based
MCF7 = assay: Cytotoxicity against human MCF7 cells assessed as reduction in cell viability after 6 days by SRB assay; assay type: functional, cell-based
SCC-15 = assay: Cytotoxicity against human SCC15 cells assessed as reduction in cell viability after 6 days by SRB assay; assay type: functional, cell-based
SCC-25 = assay: Cytotoxicity against human SCC25 cells assessed as reduction in cell viability after 6 days by SRB assay; assay type: functional, cell-based
SCC-9 = assay: Cytotoxicity against human SCC9 cells assessed as reduction in cell viability after 6 days by SRB assay; assay type: functional, cell-based
Pichia kudriavzevii = assay: Antifungal activity against Pichia kudriavzevii ATCC 6258 assessed as reduction in microbial growth up to 200 uM incubated for 24 to 48 hrs; assay type: functional, organism-based
FaDu = assay: Cytotoxicity against human FADU cells assessed as reduction in cell viability after 6 days by SRB assay; assay type: functional, cell-based
[Candida] auris [2] = Antifungal activity against Candida auris CBS 10913 assessed as reduction in microbial growth up to 200 uM incubated for 24 to 48 hrs; assay type: functional, organism-based; conditions: Candidozyma auris
[3] = Stability of compound in DMSO; assay type: physicochemical

Row | Stability [3] | SMILES | Activity (CAL-27) | Activity (NFF) | Activity (Candida albicans) | Activity ([Candida] auris [1]) | Activity (Nakaseomyces glabratus) | Activity (MM96L) | Activity (MCF7) | Activity (SCC-15) | Activity (SCC-25) | Activity (SCC-9) | Activity (Pichia kudriavzevii) | Activity (FaDu) | Activity ([Candida] auris [2])
1 |  | C/C1=C/CC[C@@]2(C)O[C@@H]2CC(C)(C)/C=C/C1=O | inactive | Non-Toxic | inactive | inactive | inactive | inactive | inactive | inactive | inactive | inactive | inactive | inactive | inactive
2 |  | C/C1=C\CC[C@@]2(C)O[C@@H]2CC(C)(C)/C=C/C1=O [ZERUMBONE EPOXIDE] | inactive | Non-Toxic |  |  |  | inactive | inactive | inactive | inactive | inactive |  | inactive | 
3 | Unstable | C[C@@H]1CCC[C@@]2(C)[C@H](C1=O)[C@@H](C(C)(C)O)C[C@@H]2O |  |  |  |  |  |  |  |  |  |  |  |  | 
